Data taken from patent US8173689B2 (Novartis AG, priority 2006, dated 2012).
Read-outs that look alike come from different tables or passages of the source.

How the values were obtained:
[1] = biological target: T1, cytoplasmic domain of the human CSF-1R (Homo sapiens, UniProt P07333); assay: In vitro kinase assay for colony stimulating factor-1 receptor (AlphaScreen); type: biochemical; settings: tested at about 1 μM, read-out: CSF-1R percent inhibition
T1 construct: Recombinant protein corresponding to the cytoplasmic domain of the human CSF-1R; purchased Invitrogen Corporation, Carlsbad, Calif; PV3249
T1 sequence (P07333 539-972 limits assumed): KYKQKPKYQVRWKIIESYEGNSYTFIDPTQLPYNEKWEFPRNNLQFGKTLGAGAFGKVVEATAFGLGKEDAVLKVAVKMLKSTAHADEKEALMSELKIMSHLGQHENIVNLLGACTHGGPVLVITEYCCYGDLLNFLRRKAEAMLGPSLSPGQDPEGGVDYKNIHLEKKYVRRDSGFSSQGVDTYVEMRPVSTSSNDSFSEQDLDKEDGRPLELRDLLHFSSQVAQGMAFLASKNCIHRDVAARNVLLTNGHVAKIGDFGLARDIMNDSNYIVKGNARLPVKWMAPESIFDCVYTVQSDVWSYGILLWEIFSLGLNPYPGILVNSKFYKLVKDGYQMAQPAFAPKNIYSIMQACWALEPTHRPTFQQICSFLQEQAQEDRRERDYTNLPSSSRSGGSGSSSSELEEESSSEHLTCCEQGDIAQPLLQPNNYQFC
Summary of the method: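 Kinase reaction used 4 nM recombinant cytoplasmic domain at 1 μM ATP in 50 mM Hepes pH 7.5 with 5 mM MgCl2, 10 mM MnCl2, 0.1% BSA, 1.0 mM DTT and 0.01% Tween 80. Compounds were serially diluted 3-fold from 25 μM. Phosphopeptide was detected by AlphaScreen, PT66 anti-phosphotyrosine acceptor plus streptavidin donor beads, read after overnight incubation.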

kinase domain of cKIT = biological target: T2, kinase domain of cKIT (Homo sapiens, UniProt P10721); assay: Inhibition of cKIT kinase signaling in an in vitro biochemical assay (alphascreen); settings: tested at about 1 μM, read-out: cKit percent inhibition
T2 construct: The kinase domain of cKIT was assayed in 50 mM Hepes; purchased Upstate 14-559
T2 sequence (P10721 589-937 limits assumed): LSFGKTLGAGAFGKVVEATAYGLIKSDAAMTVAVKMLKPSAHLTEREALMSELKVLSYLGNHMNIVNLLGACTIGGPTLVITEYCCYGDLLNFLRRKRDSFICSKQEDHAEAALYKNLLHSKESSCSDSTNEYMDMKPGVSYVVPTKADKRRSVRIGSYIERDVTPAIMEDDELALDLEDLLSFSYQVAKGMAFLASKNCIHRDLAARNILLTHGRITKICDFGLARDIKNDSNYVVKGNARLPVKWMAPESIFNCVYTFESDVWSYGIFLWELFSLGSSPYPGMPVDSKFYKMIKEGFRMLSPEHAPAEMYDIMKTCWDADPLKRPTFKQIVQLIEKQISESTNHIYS

kinase domain of PDGFRβ = biological target: T3, kinase domain of PDGFRβ (Homo sapiens, UniProt P09619); assay: Inhibition of PDGFRb kinase signaling in an in vitro biochemical assay (alphascreen); settings: tested at about 1 μM, read-out: PDGFRβ percent inhibition
T3 construct: The kinase domain of PDGFRβ was assayed in 50 mM Hepes; purchased Invitrogen P3082
T3 sequence (P09619 600-962 limits assumed): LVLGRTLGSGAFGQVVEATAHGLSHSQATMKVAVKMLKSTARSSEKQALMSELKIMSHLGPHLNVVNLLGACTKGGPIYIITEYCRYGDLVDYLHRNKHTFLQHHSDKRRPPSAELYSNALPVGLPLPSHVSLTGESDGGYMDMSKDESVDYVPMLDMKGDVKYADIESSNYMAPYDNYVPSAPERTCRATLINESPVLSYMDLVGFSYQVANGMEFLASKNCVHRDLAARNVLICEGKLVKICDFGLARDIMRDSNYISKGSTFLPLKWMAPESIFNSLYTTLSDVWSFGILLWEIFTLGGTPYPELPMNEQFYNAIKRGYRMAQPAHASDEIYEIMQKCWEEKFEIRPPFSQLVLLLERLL

[2] = test system: MNFS60 (murine AML cells); assay: Cell viability assay in MCSF dependent MNFS60 cells (Cell Titer Glo); type: cell-based; settings: Mus musculus, tested at about 1 μM, read-out: M-NFS-60 CP percent inhibition
Summary of the method: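 Three-fold serial compound dilutions, prepared in DMSO at 500× the final level, were applied alongside MCSF (final 10 ng/ml). Incubation lasted 72 hrs (37° C., 5% CO2) before CellTiter-Glo addition. Triplicate points were curve-fitted for EC50.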

| Compound | inhibition at 1 µM [1] [%] | inhibition at 1 µM (kinase domain of cKIT) [%] | inhibition at 1 µM (kinase domain of PDGFRβ) [%] | inhibition at 1 µM ([2]; MNFS60 cells) [%] | inhibition at 1 µM ([2]; MCSF dependent MNFS60 cells) [%] | inhibition at 1 µM ([1]; compounds of Table 3) [%] | inhibition at 1 µM (kinase domain of cKIT; compounds of Table 3) [%] | inhibition at 1 µM (kinase domain of PDGFRβ; compounds of Table 3) [%] | inhibition at 1 µM ([2]; compounds of Table 3) [%] |
| --- | --- | --- | --- | --- | --- | --- | --- | --- | --- |
| CNC(=O)c1cc(Oc2ccc3nc(NCCc4cccc5c4OCCO5)oc3c2)ccn1 [Compound 123, 4-{2-[2-(2,3-Dihydro-benzo-[1,4]dioxin-5-yl)-ethylamino]-benzooxazol-6-yloxy}-pyridine-2-carboxylic acid methylamide] | 99 | 15 | 2 | 0 |  |  |  |  |  |
| Cn1cc(-c2cc(Oc3ccc4nc(N[C@H](CO)Cc5ccccc5)sc4c3)ccn2)cn1 [Example 351, (S)-2-(6-(2-(1-methyl-1H-pyrazol-4-yl)pyridin-4-yloxy)benzo[d]thiazol-2-ylamino)-3-phenylpropan-1-ol] | 100 | 98 | 79 |  | 100 |  |  |  |  |
| Fc1ccc2c(Oc3ccc4nc(NCC5CCCCC5)sc4c3)ccnc2c1 [Example 227, N-(cyclohexylmethyl)-6-(7-fluoroquinolin-4-yloxy)benzo[d]thiazol-2-amine] |  |  |  |  |  | 100 | 100 | 47 | 65 |
| OC[C@H](Cc1ccccc1)Nc1nc2ccc(Oc3ccnc4ccccc34)cc2s1 [Example 242] |  |  |  |  |  | 100 | 97 | 35 | 51 |
| COCCNC(=O)c1cc(Oc2ccc3nc(NCC4CCCCC4)sc3c2)ccn1 [Compound 159, 4-(2-(cyclohexylmethyl-amino)benzothiazol-6-yloxy)-N-(2-methox.ylethyl)-pyridine-2-carboxamide] | 99 | 12 | 1 | 17 |  |  |  |  |  |
| CNC(=O)c1cc(Oc2ccc3nc(NCc4ccc(OC)c(OC)c4)sc3c2)ccn1 [Compound 151, 4-[2-(3,4-Dimethoxy-benzyl-amino)-benzothiazol-6-yloxy]-pyridine-2-carboxylic acid methylamide] | 99 | 5 | 0 | 26 |  |  |  |  |  |
| CNC(=O)c1cc(Oc2ccc3nc(N[C@@H](C)C(C)C)sc3c2)ccn1 [Compound 150] |  |  |  |  |  | 100 | 24 | 2 | 22 |
| C[C@@H](Nc1nc2ccc(Oc3ccnc(-c4cnn(C)c4)c3)cc2s1)C1CCCCC1 [Example 354, (R)-N-(1-cyclohexylethyl)-6-(2-(1-methyl-1H-pyrazol-4-yl)pyridin-4-yloxy)benzo[d]thiazol-2-amine] | 100 | 100 | 98 |  | 100 |  |  |  |  |
| Fc1cc2nccc(Oc3ccc4nc(NCC5CCCCC5)sc4c3)c2cc1F [Example 211] |  |  |  |  |  | 100 | 85 | 50 | 23 |
| CNC(=O)c1cc(Oc2ccc3nc(NC4CC=CCC4)oc3c2)ccn1 (stereo not drawn) [Compound 70, 4-[2-(Cyclohex-3-enylamino)-benzooxazol-6-yloxy]-pyridine-2-carboxylic acid methylamide] | 99 | 0 | 0 | 0 |  |  |  |  |  |
| Cc1nn(C)c(C)c1-c1cc(Oc2ccc3nc(N[C@@H]4CCCC[C@H]4O)sc3c2)ccn1 [Example 283, (1R,2R)-2-(6-(2-(1,3,5-trimethyl-1H-pyrazol-4-yl)pyridin-4-yloxy)benzo[d]thiazol-2-ylamino)cyclohexanol] |  |  |  |  |  | 99 | 38 | 20 | 0 |
| FC(F)(F)Oc1ccc2c(Oc3ccc4nc(NCC5CCCCC5)sc4c3)ccnc2c1 [Example 228, N-(cyclohexylmethyl)-6-(7-(trifluoromethoxy)quinolin-4-yloxy)benzo[d]thiazol-2-amine] |  |  |  |  |  | 100 | 70 | 26 | 32 |
| Cn1cc(-c2cnccc2Oc2ccc3nc(N[C@@H]4CCCC[C@H]4O)sc3c2)cn1 [Example 189] |  |  |  |  |  | 100 | 31 | 23 | 26 |
| c1ccc2c(c1)CCC[C@@H]2Nc1nc2ccc(Oc3ccnc4ccccc34)cc2s1 [Example 249, (S)-6-(quinolin-4-yloxy)-N-(1,2,3,4-tetrahydronaphthalen-1-yl)benzo[d]thiazol-2-amine] |  |  |  |  |  | 100 | 69 | 0 | 100 |
| Cn1nccc1-c1cc(Oc2ccc3nc(N[C@@H]4CCCC[C@H]4O)sc3c2)ccn1 [Example 265, (1R,2R)-2-(6-(2-(1-methyl-1H-pyrazol-5-yl)pyridin-4-yloxy)benzo[d]thiazol-2-ylamino)cyclohexanol] |  |  |  |  |  | 100 | 9 | 12 | 32 |
| CNC(=O)c1cc(Oc2ccc3nc(NCC4CCCN(C(=O)NC(C)C)C4)sc3c2)ccn1 (stereo not drawn) [Example 337, 4-(2-((1-(isopropylcarbamoyl)piper-idin-3-yl)methylamino)benzo[d]thiazol-6-yloxy)-N-methylpicolinamide] | 95 | 14 | 0 |  | 19 |  |  |  |  |
| O[C@@H]1Cc2ccccc2[C@@H]1Nc1nc2ccc(Oc3ccnc4ccccc34)cc2s1 [Example 239, (1S,2R)-1-(6-(quinolin-4-yloxy)benzo[d]thiazol-2-ylamino)-2,3-dihydro-1H-inden-2-ol] |  |  |  |  |  | 100 | 100 | 25 | 90 |
| CNC(=O)c1cc(Oc2ccc3nc(NCC4CCOCC4)sc3c2)ccn1 [Compound 141, 4-{2-[(tetrahydro-pyran-4-ylmethyl)-amino]-benzothiazol-6-yloxy}-pyridine-2-carboxylic acid methylamide] | 100 | 1 | 0 | 22 |  |  |  |  |  |
| C[C@H](Nc1nc2ccc(Oc3ccnc(Cl)c3)cc2s1)C1CCCCC1 [Example 264, (S)-6-(2-chloropyridin-4-yloxy)-N-(1-cyclohexylethyl)benzo[d]thiazol-2-amine] |  |  |  |  |  | 97 | 25 | 4 | 3 |
| Cn1cc(-c2cc(Oc3ccc4nc(N[C@H](CO)C5CCCCC5)sc4c3)ccn2)cn1 [Example 353, (S)-2-cyclohexyl-2-(6-(2-(1-methyl-1H-pyrazol-4-yl)pyridin-4-yloxy)benzo[d]thiazol-2-ylamino)ethanol] | 100 | 100 | 100 |  | 100 |  |  |  |  |
| CNC(=O)c1cc(Oc2ccc3nc(N[C@@H]4CCCC[C@H]4O)sc3c2C)ccn1 [Example 377, 4-(2-((1R,2R)-2-hydroxycyclohexylamino)-7-methylbenzo[d]thiazol-6-yloxy)-N-methylpicolinamide] | 100 | 75 | 49 |  | 93 |  |  |  |  |
| CNC(=O)c1cc(Oc2ccc3nc(NCc4cc(Cl)ccc4OC)oc3c2)ccn1 [Compound 114, 4-[2-(5-Chloro-2-methoxy-benzylamino)-benzooxazol-6-yloxy]-pyridine-2-carboxylic acid methylamide] | 100 | 92 | 15 | 36 |  |  |  |  |  |
| CNC(=O)c1cc(Oc2ccc3nc(NCc4c(OC)cc(OC)cc4OC)oc3c2)ccn1 [Compound 113, 4-[2-(2,4,6-Trimethoxy-benzylamino)-benzooxazol-6-yloxy]-pyridine-2-carboxylic acid methylamide] | 97 | 7 | 17 | 19 |  |  |  |  |  |
| CNC(=O)c1cc(Oc2ccc3nc(N[C@@H]4CCCC[C@H]4NC(C)=O)sc3c2)ccn1 [Example 298, 4-(2-((1R,2R)-2-acetamidocyclohexylamino)benzo[d]thiazol-6-yloxy)-N-methylpicolinamide] |  |  |  |  |  | 98 | 13 | 0 | 41 |
